Data set [1] relates to isolated non-ischemic working rat heart. Kind of data set: Glucose oxidation rates in isolated non-ischemic working rat heart ([14C] glucose, 14CO2 production). The following applies: 60 minutes aerobic perfusion, compound added about 5 minutes into the aerobic period; saline control 1580±183. How it is done: The goal was to determine if […] altered glucose oxidation rates or cardiac function in the isolated non-ischemic working rat heart model. This was achieved by subjecting rat hearts to 60 minutes of aerobic perfusion. […] was added about 5 minutes into the aerobic period and the effects of […] on glucose metabolism was determined during the aerobic period. […] Rat hearts were cannulated for isolated working heart perfusions as described previously (Lopaschuk et al., J Pharmacol Exp Ther. 1993 January;264(1):135-44). In brief, male Sprague-Dawley rats (0.3-0.35 kg) were anesthetized with pentobarbital sodium (60 mg/kg i. p.). The hearts were quickly excised, the aorta was cannulated, and a retrograde perfusion at 37° C. was initiated at a hydrostatic pressure of 60 mm Hg. Hearts were trimmed of excess tissue, and the pulmonary artery and the opening to the left atrium were then cannulated. […] Spontaneously beating hearts were used in all perfusions, heart rate and aortic pressure were measured with a Biopac Systems Inc. blood pressure transducer connected to the aortic outflow line. Cardiac output and aortic flow were measured with Transonic […] ultrasonic flow probes in the preload and afterload lines, respectively. Coronary flow was calculated as the difference between cardiac output and aortic flow. […]

Data set [2] can be described thus: Treatment of stress-induced angina in patients (P5P, pyridoxine, derivatives; alone and in combination therapies). The format is in vivo, human. How it is done:
Patients with a history of exercise induced angina are treated with P5P either before or after the onset of angina. Several measures are used to test the effectiveness of P5P for the treatment of angina including the time to onset of angina, exercise duration, time to 1 mm ST depression, and patient pain evaluation.
The experiment of Example 25 is repeated, this time testing combination therapies.
The Experiments of Example 28 are repeated, this time using pyridoxine instead of P5P.

A short description of data set [3]: Animal models for treatment of stress-induced angina (canine model of myocardial ischemia, canine model of exertional dysfunction, isolated perfused rat heart model of low flow ischemia). The following applies: compared with untreated or sham treated control animals. The format is in vivo. The text has this: The canine model of myocardial ischemia, the canine model of exertional dysfunction, and the isolated perfused rate heart model of low flow ischemia, as previously and elsewhere described, is used to determine the effectiveness of P5P, pyridoxal, pyridoxine, and the compounds synthesized in Examples 1-24, to determine effectiveness of these compounds in treatment of angina.
The animal model experiments of Example 26 are repeated, this time with the combination treatment groups as elucidated in Examples 28, 29 and 30.

For data set [4] the following is noted: water, alcohol, and ether; cited from earlier work.
Where [5] appears, read: patients with a history of exercise induced angina, treated before or after the onset of angina.

Structures are written as SMILES.

Turning to `O=C(O)C(Cl)Cl` [DCA, dichloroacetic acid, reference compound], the glucose oxidation rates in data set [1] was 2422±140.

In the case of `Cc1ncc(COP(=O)(O)O)c(C=O)c1O` [Example P5P, 3-hydroxy-2-methyl-5-[(phosphonooxy)methyl]-4-pyridine-carboxaldehyde], in data set [2] (setting [5]), the exercise duration result is “increased”, the “onset to angina (time to onset of angina)” value was “diminished”, the “patient pain (patient pain evaluation)” value is listed as “diminished” and the “time to 1 mm ST depression” value was “diminished”. Further, in data set [2] (patients, P5P treatment alone (Example 28)), the “angina outcomes, treatment alone” value is on record as “improves angina outcomes”. In addition, the “symptoms and levels of angina” value in data set [3] was “significantly lower symptoms and levels of angina”. This compound also returned a glucose oxidation rates in data set [1] of 2253±230. Also, the solubility result in data set [4] was “essentially insoluble in water, alcohol, and ether”.

For `Cc1ncc(CO)c(C=O)c1O` [pyridoxal], in data set [3], the “symptoms and levels of angina” value is “significantly lower symptoms and levels of angina”.

As for `Cc1ncc(CO)c(CO)c1O` [pyridoxine, 2-methyl-3-hydroxy-4,5-di(hydroxymethyl)pyridine], the “symptoms and levels of angina” value in data set [3] is “significantly lower symptoms and levels of angina”.
